Test results published in the supplement of paper PMC8671470.

Experiments:
Details in all cases: 72 h
[1] = system: MV4-11; test: cell viability (% survival relative to DMSO control, bortezomib = 0%); higher = less cytotoxic
Summary of the method: (§1)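 After 72 h at 37 °C with 5% CO2, cell viability in 384-well plates was measured by CellTiter-Glo luminescence. The plates held compounds pre-printed at 1, 10, 100, 1000 or 10000 nM in duplicate, and cells from 10 AML and 5 CML lines seeded at densities titrated to linear growth. Percent survival is the duplicate mean, normalised to vehicle as 100% and a 10 µM positive control as 0%.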

[2] = system: MOLM-13; test: as above
Summary of the method: as §1

[3] = system: NOMO-1; test: as above
Summary of the method: as §1

[4] = system: SHI-1; test: as above
Summary of the method: as §1

[5] = system: BV-173; test: as above
Summary of the method: as §1

[6] = system: KCL-22; test: as above
Summary of the method: as §1

[7] = system: HL-60; test: as above
Summary of the method: as §1

[8] = system: Mono-Mac-6; test: as above
Summary of the method: as §1

[9] = system: K-562; test: as above
Summary of the method: as §1

[10] = system: KG-1; test: as above
Summary of the method: as §1

[11] = system: KU-812; test: as above
Summary of the method: as §1

[12] = system: THP-1; test: as above
Summary of the method: as §1

[13] = system: ML-2; test: as above
Summary of the method: as §1

[14] = system: HEL; test: as above
Summary of the method: as §1

[15] = system: LAMA-84; test: as above
Summary of the method: as §1

[16] = system: MV4-11
Summary of the method: (§2)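 For the IC50, dose–response curves were fitted with a log-logistic model. The data came from fifteen myeloid leukaemia cell lines grown in RPMI 1640 at densities in the linear growth range and incubated in 384-well plates for 72 h at 37 °C under 5% CO2. Doses were five tenfold steps from 1 to 10,000 nM in duplicate, and luminescent ATP viability was normalised to vehicle and to a positive control at 10 µM before four-parameter fitting.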

[17] = system: MOLM-13
Summary of the method: as §2

[18] = system: NOMO-1
Summary of the method: as §2

[19] = system: SHI-1
Summary of the method: as §2

[20] = system: BV-173
Summary of the method: as §2

[21] = system: KCL-22
Summary of the method: as §2

[22] = system: HL-60
Summary of the method: as §2

[23] = system: Mono-Mac-6
Summary of the method: as §2

[24] = system: K-562
Summary of the method: as §2

[25] = system: KG-1
Summary of the method: as §2

[26] = system: KU-812
Summary of the method: as §2

[27] = system: THP-1
Summary of the method: as §2

[28] = system: ML-2
Summary of the method: as §2

[29] = system: HEL
Summary of the method: as §2

[30] = system: LAMA-84
Summary of the method: as §2

C[C@]12C=CC(=O)C=C1CC[C@@H]1[C@@H]2[C@@H](O)C[C@@]2(C)[C@H]1CC[C@]2(O)C(=O)CO [Prednisolone]
cell viability [%]
Details | 1 nM | 10 nM | 100 nM | 1000 nM | 10000 nM
[1] | 95.2 | 110 | 143 | 142 | 107
[2] | 94.3 | 96 | 118 | 106 | 109
[3] | 93.3 | 103 | 109 | 88.7 | 87.3
[4] | 97.7 | 95.7 | 97.9 | 67.6 | 71.9
[5] | 82.5 | 104 | 18.8 | 1.67 | 2.49
[6] | 94.2 | 111 | 82.5 | 45.4 | 43
[7] | 93.2 | 93.5 | 104 | 114 | 116
[8] | 93.7 | 90.3 | 151 | 157 | 140
[9] | 112 | 88.7 | 104 | 99 | 92.6
[10] | 115 | 105 | 87.7 | 91.3 | 71.4
[11] | 87.2 | 104 | 99.8 | 124 | 112
[12] | 92 | 96.4 | 106 | 108 | 102
[13] | 91.5 | 104 | 115 | 114 | 104
[14] | 105 | 114 | 109 | 109 | 105
[15] | 94.1 | 106 | 92.6 | 88.5 | 81.5

Details | IC50 (cell viability) [µM]
[16] | > 10
[17] | > 10
[18] | > 10
[19] | > 10
[20] | 0.0525
[21] | 0.524
[22] | > 10
[23] | > 10
[24] | > 10
[25] | > 10
[26] | > 10
[27] | > 10
[28] | > 10
[29] | > 10
[30] | > 10

N[C@@H](CC(=O)N1CCn2c(nnc2C(F)(F)F)C1)Cc1cc(F)c(F)cc1F [Sitagliptin]
cell viability [%]
Details | 1 nM | 10 nM | 100 nM | 1000 nM | 10000 nM
[1] | 89.2 | 102 | 99.3 | 92.2 | 101
[2] | 95.5 | 110 | 92.5 | 84.3 | 95.4
[3] | 99.8 | 96.9 | 91.3 | 101 | 100
[4] | 95.2 | 104 | 105 | 96.8 | 97.4
[5] | 89.5 | 103 | 99.9 | 93.4 | 102
[6] | 94 | 114 | 106 | 94.4 | 92.8
[7] | 101 | 95.5 | 97.1 | 91.3 | 95.2
[8] | 92.5 | 83.8 | 96.1 | 85.6 | 100
[9] | 93.8 | 96.9 | 103 | 99.7 | 113
[10] | 90.9 | 104 | 108 | 95.2 | 103
[11] | 94.6 | 98.9 | 91.9 | 95.5 | 102
[12] | 97.8 | 99.7 | 106 | 99 | 97.6
[13] | 90 | 102 | 99.3 | 97.4 | 97.9
[14] | 90.7 | 95.3 | 111 | 95.4 | 103
[15] | 93.1 | 99.2 | 94 | 102 | 93.8

Details | IC50 (cell viability) [µM]
[16] | > 10
[17] | > 10
[18] | > 10
[19] | > 10
[20] | > 10
[21] | > 10
[22] | > 10
[23] | > 10
[24] | > 10
[25] | > 10
[26] | > 10
[27] | > 10
[28] | > 10
[29] | > 10
[30] | > 10

CCCCCCCC/C=C\CCCCCCCC(=O)Nc1ccccc1 [Octadec-9-Enoic Acid Phenylamide]
cell viability [%]
Details | 1 nM | 10 nM | 100 nM | 1000 nM | 10000 nM
[1] | 118 | 100 | 108 | 110 | 82.6
[2] | 106 | 90.3 | 91.1 | 98.3 | 108
[3] | 97 | 97.1 | 97.1 | 99.2 | 99.6
[4] | 109 | 94.4 | 103 | 100 | 98
[5] | 98.4 | 94.8 | 99.7 | 100 | 95.7
[6] | 103 | 95.7 | 99.5 | 103 | 96.6
[7] | 96.1 | 105 | 113 | 100 | 124
[8] | 97.1 | 103 | 108 | 99.5 | 101
[9] | 110 | 92.7 | 95.8 | 104 | 93.4
[10] | 107 | 96.9 | 99.9 | 99.2 | 97.4
[11] | 100 | 96.3 | 95.6 | 96.8 | 108
[12] | 98.7 | 97.9 | 103 | 93.5 | 107
[13] | 113 | 105 | 99.9 | 103 | 108
[14] | 104 | 92.9 | 92.3 | 106 | 104
[15] | 107 | 97.8 | 101 | 103 | 99.4

Details | IC50 (cell viability) [µM]
[16] | > 10
[17] | > 10
[18] | > 10
[19] | > 10
[20] | > 10
[21] | > 10
[22] | > 10
[23] | > 10
[24] | > 10
[25] | > 10
[26] | > 10
[27] | > 10
[28] | > 10
[29] | > 10
[30] | > 10

OC[C@H]1NC[C@H](O)[C@@H](O)[C@@H]1O [Duvoglustat]
cell viability [%]
Details | 1 nM | 10 nM | 100 nM | 1000 nM | 10000 nM
[1] | 93.3 | 108 | 92.8 | 92.6 | 113
[2] | 79.3 | 127 | 104 | 83.3 | 102
[3] | 95.8 | 101 | 99.5 | 83.4 | 105
[4] | 103 | 121 | 109 | 88 | 108
[5] | 96.5 | 85.3 | 104 | 75.6 | 96.5
[6] | 90.5 | 120 | 107 | 87 | 104
[7] | 90.1 | 180 | 113 | 81 | 125
[8] | 102 | 107 | 105 | 78.9 | 104
[9] | 90.3 | 94.7 | 100 | 88.2 | 105
[10] | 96.4 | 111 | 108 | 87.3 | 101
[11] | 84.9 | 99.8 | 92.5 | 94.5 | 103
[12] | 96.6 | 92.3 | 109 | 84.6 | 101
[13] | 95.4 | 121 | 117 | 84.9 | 106
[14] | 94.5 | 122 | 99.8 | 94.4 | 103
[15] | 84.3 | 98 | 106 | 88.3 | 106

Details | IC50 (cell viability) [µM]
[16] | > 10
[17] | > 10
[18] | > 10
[19] | > 10
[20] | > 10
[21] | > 10
[22] | > 10
[23] | > 10
[24] | > 10
[25] | > 10
[26] | > 10
[27] | > 10
[28] | > 10
[29] | > 10
[30] | > 10

CO[C@H]1C[C@@H]2CC[C@@H](C)[C@@](O)(O2)C(=O)C(=O)N2CCCC[C@H]2C(=O)O[C@H]([C@H](C)C[C@@H]2CC[C@@H](OC(=O)C(C)(CO)CO)[C@H](OC)C2)CC(=O)[C@H](C)/C=C(\C)[C@@H](O)[C@@H](OC)C(=O)[C@H](C)C[C@H](C)/C=C/C=C/C=C/1C [Temsirolimus]
cell viability [%]
Details | 1 nM | 10 nM | 100 nM | 1000 nM | 10000 nM
[1] | 89.6 | 63.6 | 62.3 | 53.2 | 37.3
[2] | 78.5 | 41.6 | 40.9 | 29.8 | 30.6
[3] | 79.9 | 67.5 | 76.8 | 60.9 | 52.9
[4] | 93.3 | 71.2 | 80.4 | 58.8 | 59.3
[5] | 96.5 | 54.8 | 57.6 | 45.7 | 39.5
[6] | 95.8 | 58.5 | 47.8 | 32.5 | 23.6
[7] | 101 | 96.8 | 90 | 73.4 | 73
[8] | 99.2 | 49.4 | 48 | 35.1 | 38
[9] | 94.8 | 58.4 | 47.2 | 44.7 | 33.5
[10] | 80.8 | 47.2 | 46.5 | 39.2 | 33.6
[11] | 71.8 | 42.9 | 44.7 | 38.8 | 36.1
[12] | 91.6 | 75 | 76.8 | 57.3 | 55.6
[13] | 84.3 | 71.5 | 70.4 | 60.3 | 38.2
[14] | 101 | 85.3 | 77.3 | 65.2 | 46.3
[15] | 90.6 | 63.2 | 65 | 49.2 | 40.9

Details | IC50 (cell viability) [µM]
[16] | 0.0611
[17] | 0.00198
[18] | 4.42
[19] | 0.0283
[20] | 0.0039
[21] | 0.0133
[22] | 0.148
[23] | 0.00487
[24] | 0.00535
[25] | 0.00205
[26] | 0.00111
[27] | 0.0539
[28] | 2.59
[29] | 1.15
[30] | 0.0208
